Test results published in patent publication US20140056835A1, “COSMETIC COMPOSITION FOR SKIN WHITENING COMPRISING SMALL MOLECULE-PEPTIDE CONJUGATE” (AE KYUNG INDUSTRIAL CO., LTD., priority 2012, published 2014).

Tests used:
Tyrosinase = target: T1, Tyrosinase (Agaricus bisporus, UniProt C7FF04); test: Test for inhibitory effect on tyrosinase activity (dopachrome absorbance at 475 nm); format: biochemical, mushrooms; details: L-tyrosine substrate, 10 min at 37° C.; for inhibition at 100 µM / inhibition at 50 µM: read-out: Tyrosinase activity inhibition rate (%)
T1 construct: purchased Sigma; host or cells: natural source: mushrooms
T1 sequence (C7FF04 1-392 limits assumed): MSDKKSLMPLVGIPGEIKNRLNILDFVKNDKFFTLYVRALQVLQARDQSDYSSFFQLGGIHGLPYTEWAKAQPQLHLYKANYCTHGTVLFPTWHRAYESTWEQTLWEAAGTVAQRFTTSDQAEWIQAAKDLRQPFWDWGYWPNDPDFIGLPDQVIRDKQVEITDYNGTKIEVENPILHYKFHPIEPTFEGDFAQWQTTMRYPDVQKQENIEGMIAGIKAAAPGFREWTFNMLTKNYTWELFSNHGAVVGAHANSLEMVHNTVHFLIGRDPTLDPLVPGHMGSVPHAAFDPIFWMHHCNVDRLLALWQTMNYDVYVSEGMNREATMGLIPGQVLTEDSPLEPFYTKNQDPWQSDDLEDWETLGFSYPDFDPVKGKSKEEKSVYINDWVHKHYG

B16F1 melanoma cells = test: Test for inhibitory effect on melanin production; format: cell-based; details: sample 50 uM, incubated for 2 days; for inhibition at 50 µM: Mus musculus, B16-F1, 48 h, read-out: Melanin production inhibition rate (%)
Protocol: Inhibitory effect on melanin formation was measured using B16F1 melanoma cells. B16F1 melanoma cells were inoculated into a 6-well plate at a density of 3×10^5 (cells/well) with DMEM containing 10% FBS. […] After 2 days, the medium was removed and the cells were washed with PBS (phosphate buffered saline), treated with trypsin, and then retrieved. The retrieved cells were centrifuged and the supernatant was discarded. Intracellular melanin was obtained by treating the cells with 0.2 ml of 1N NaOH+10% DMSO solution. The collected cells were transferred to a 96-well plate and absorbance was measured at 490 nm. The amount of intracellular melanin was estimated using standard curve with synthetic melanin as a standard substance. The amount of protein was quantified via absorbance measurement using a protein assay reagent. For the amount of melanin produced, the amount of melanin for a given protein was estimated.

skin = details: in vivo

Compound	inhibition at 100 µM (Tyrosinase; sample 100 uM) [%]	inhibition at 50 µM (B16F1 melanoma cells) [%]	Tyrosinase activity inhibition rate (%) (Tyrosinase; sample 50 uM)	Tyrosinase activity inhibition rate (%) (Tyrosinase; sample 100 uM)	Melanin production inhibition rate (%) (B16F1 melanoma cells)	Degree of irritation (skin)	Skin irritation (skin)	inhibition at 50 µM (Tyrosinase; sample 50 uM) [%]
O=C(O)/C=C/c1ccc(O)c(O)c1 [Caffeic acid]	21.3	16						
CC(C)C[C@H](NC(=O)/C=C/c1ccc(O)cc1)C(=O)NCC(N)=O [Coumaric acid-LG-NH2, Coumaric acid-Leu-Gly-NH2]			25.1	34.8	45.3	None	no irritation	
CC(C)C[C@H](NC(=O)/C=C/c1ccc(O)c(O)c1)C(=O)NCC(N)=O [Caffeic acid-LG-NH2, Caffeic acid-Leu-Gly-NH2]			24.2	26.8	41	None	no irritation	
O=C(O)/C=C/c1ccc(O)cc1 [Coumaric acid]	24.6	23						21.3
OC[C@H]1O[C@@H](Oc2ccc(O)cc2)[C@H](O)[C@@H](O)[C@@H]1O [Arbutin]	14.4	18						9.2
